Test results as given in patent US20100298141A1, “SUBSTITUTED PYRIDINE N-OXIDE HERBICIDES” (E. I. DU PONT DE NEMOURS AND COMPANY, priority 2007, published 2010).

Key:
barnyardgrass [1] = assay: Test A pre-/postemergence greenhouse test; assay type: in vivo, Echinochloa crus-galli; details: for Plant response rating, Barnyardgrass: 0 to 100 scale where 0 is no effect and 100 is complete control; for Barnyardgrass plant response rating: 0 to 100 scale
Source text: (§1) Seeds of barnyardgrass (Echinochloa crus-galli), crabgrass (Digitaria sanguinalis), giant foxtail (Setaria faberi), morningglory (Ipomoea spp.), redroot pigweed (Amaranthus retroflexus), velvetleaf (Abutilon theophrasti), wheat (Triticum aestivum), and corn (Zea mays) were planted into a blend of loam soil and sand and treated preemergence with a directed soil spray using test compounds formulated in a non-phytotoxic solvent mixture which included a surfactant. At the same time these species were also treated with postemergence applications of test compounds formulated in the same manner. Plants ranged in height from two to ten cm and were in the one- to two-leaf stage for the postemergence treatment. Treated plants and untreated controls were maintained in a greenhouse for approximately ten days, after which time all treated plants were compared to untreated controls and visually evaluated for injury. […] A dash (-) response means no test results.

crabgrass = assay: Test A pre-/postemergence greenhouse test; assay type: in vivo, Digitaria sanguinalis; details: for Plant response rating, Crabgrass, Large: 0 to 100 scale where 0 is no effect and 100 is complete control; for Crabgrass, Large plant response rating: 0 to 100 scale
Source text: as §1

giant foxtail = assay: Test A pre-/postemergence greenhouse test; assay type: in vivo, Setaria faberi; details: for Plant response rating, Foxtail, Giant: 0 to 100 scale where 0 is no effect and 100 is complete control; for Foxtail, Giant plant response rating: 0 to 100 scale
Source text: as §1

morningglory = assay: Test A pre-/postemergence greenhouse test; assay type: in vivo, Ipomoea spp.; details: for Plant response rating, Morningglory: 0 to 100 scale where 0 is no effect and 100 is complete control; for Morningglory plant response rating: 0 to 100 scale, 0 is no effect, 100 is complete control
Source text: as §1

redroot pigweed = assay: Test A pre-/postemergence greenhouse test; assay type: in vivo, Amaranthus retroflexus; details: for Plant response rating, Pigweed: 0 to 100 scale where 0 is no effect and 100 is complete control; for Pigweed plant response rating: 0 to 100 scale
Source text: as §1

velvetleaf = assay: Test A pre-/postemergence greenhouse test; assay type: in vivo, Abutilon theophrasti; details: for Plant response rating, Velvetleaf: 0 to 100 scale where 0 is no effect and 100 is complete control; for Velvetleaf plant response rating: 0 to 100 scale
Source text: as §1

wheat = assay: Test A pre-/postemergence greenhouse test; assay type: in vivo, Triticum aestivum; details: for Plant response rating, Wheat: 0 to 100 scale where 0 is no effect and 100 is complete control; for Wheat plant response rating: 0 to 100 scale
Source text: as §1

corn = assay: Test A pre-/postemergence greenhouse test; assay type: in vivo, Zea mays; details: for Plant response rating, Corn: 0 to 100 scale where 0 is no effect and 100 is complete control; for Corn plant response rating: 0 to 100 scale
Source text: as §1

rice = assay: Test C flooded paddy test; assay type: in vivo, Oryza sativa; details: Flood
Source text: (§2) At time of treatment, test pots were flooded to 3 cm above the soil surface, treated by application of test compounds directly to the paddy water, and then maintained at that water depth for the duration of the test. Treated plants and controls were maintained in a greenhouse for 13 to 15 days, after which time all species were compared to controls and visually evaluated. […] A dash (-) response means no test result.

umbrella sedge = assay: Test C flooded paddy test; assay type: in vivo, Cyperus difformis; details: Flood
Source text: as §2

duck salad = assay: Test C flooded paddy test; assay type: in vivo, Heteranthera limosa; details: Flood
Source text: as §2

barnyardgrass [2] = assay: Test C flooded paddy test; assay type: in vivo, Echinochloa crus-galli; details: Flood
Source text: as §2

[3] = Postemergence, 500 g ai/ha, 0 is no effect, 100 is complete control
[4] = Preemergence, 125 g ai/ha, 0 no effect, 100 complete control
[5] = Preemergence, 500 g ai/ha, 0 no effect, 100 complete control
[6] = 62 g ai/ha, scale 0 to 100 (0 no effect, 100 complete control)
[7] = 250 g ai/ha, scale 0 to 100, 0 no effect, 100 complete control, 13 to 15 days
[8] = Postemergence, 125 g ai/ha, 0 is no effect, 100 is complete control
[9] = 31 g ai/ha, scale 0 to 100 (0 no effect, 100 complete control)
[10] = 62 g ai/ha, scale 0 to 100, 0 no effect, 100 complete control, 13 to 15 days
[11] = 125 g ai/ha, scale 0 to 100, 0 no effect, 100 complete control, 13 to 15 days
[12] = 250 g ai/ha, scale 0 to 100 (0 no effect, 100 complete control)

With Cn1nc(C(F)(F)F)c(C[S+]([O-])c2ccc(Cl)c[n+]2[O-])c1OCC(F)(F)C(F)(F)F (stereo not shown) [Compound 89] the “Plant response rating, Barnyardgrass” value (barnyardgrass [1]; Postemergence, 125 g ai/ha) was 70, the “Barnyardgrass plant response rating” value (barnyardgrass [1]; [3]) was 90 and the “Barnyardgrass plant response rating” value (barnyardgrass [1]; [4]) was 40. For the same compound, the “Plant response rating, Barnyardgrass” value (barnyardgrass [1]; Preemergence, 500 g ai/ha) was 100, the “Plant response rating, Crabgrass, Large” value (crabgrass; Postemergence, 125 g ai/ha) was 50 and the “Crabgrass, Large plant response rating” value (crabgrass; [3]) was 90. The “Crabgrass, Large plant response rating” value (crabgrass; [4]) was 90, the “Plant response rating, Crabgrass, Large” value (crabgrass; Preemergence, 500 g ai/ha) was 90 and the “Plant response rating, Foxtail, Giant” value (giant foxtail; Postemergence, 125 g ai/ha) was 80. For the same compound, the “Foxtail, Giant plant response rating” value (giant foxtail; [3]) was 90, the “Foxtail, Giant plant response rating” value (giant foxtail; [4]) was 80 and the “Plant response rating, Foxtail, Giant” value (giant foxtail; Preemergence, 500 g ai/ha) was 100. The “Plant response rating, Morningglory” value (morningglory; Postemergence, 125 g ai/ha) was 40, the “Morningglory plant response rating” value (morningglory; Postemergence, 500 g ai/ha) was 90 and the “Plant response rating, Morningglory” value (morningglory; Preemergence, 500 g ai/ha) was 90. For the same compound, the “Plant response rating, Pigweed” value (redroot pigweed; Postemergence, 125 g ai/ha) was 50, the “Pigweed plant response rating” value (redroot pigweed; [3]) was 100 and the “Pigweed plant response rating” value (redroot pigweed; [4]) was 80. For the same compound, the “Plant response rating, Pigweed” value (redroot pigweed; Preemergence, 500 g ai/ha) was 100, the “Plant response rating, Velvetleaf” value (velvetleaf; Postemergence, 125 g ai/ha) was 30 and the “Velvetleaf plant response rating” value (velvetleaf; [3]) was 80. For the same compound, the “Velvetleaf plant response rating” value (velvetleaf; [4]) was 10, the “Velvetleaf plant response rating” value (velvetleaf; [5]) was 100 and the “Plant response rating, Wheat” value (wheat; Postemergence, 125 g ai/ha) was 60. The “Wheat plant response rating” value (wheat; [3]) was 70, the “Wheat plant response rating” value (wheat; [4]) was 30 and the “Wheat plant response rating” value (wheat; [5]) was 90. The “Plant response rating, Corn” value (corn; Postemergence, 125 g ai/ha) was 50, the “Corn plant response rating” value (corn; [3]) was 80 and the “Corn plant response rating” value (corn; [4]) was 30. The “Plant response rating, Corn” value (corn; Preemergence, 500 g ai/ha) was 90, the “Plant response rating, Rice” value (rice; [6]) was 0 and the “Plant response rating, Rice” value (rice; [7]) was 60. For the same compound, the “Plant response rating, Sedge, Umbrella” value (umbrella sedge; [6]) was 0, the “Plant response rating, Sedge, Umbrella” value (umbrella sedge; [7]) was 100 and the “Plant response rating, Ducksalad” value (duck salad; [6]) was 40. For the same compound, the “Plant response rating, Ducksalad” value (duck salad; [7]) was 100, the “Plant response rating, Barnyardgrass” value (barnyardgrass [2]; [6]) was 0 and the “Plant response rating, Barnyardgrass” value (barnyardgrass [2]; [7]) was 90.
For Cn1nc(C(F)(F)F)c(C(Cl)S(=O)(=O)c2ccc(Cl)c[n+]2[O-])c1Cl (racemic) [Compound 21], the “Barnyardgrass plant response rating” value (barnyardgrass [1]; [8]) was 0, the “Barnyardgrass plant response rating” value (barnyardgrass [1]; [3]) was 30 and the “Barnyardgrass plant response rating” value (barnyardgrass [1]; [4]) was 60. For the same compound, the “Plant response rating, Barnyardgrass” value (barnyardgrass [1]; Preemergence, 500 g ai/ha) was 90, the “Crabgrass, Large plant response rating” value (crabgrass; [8]) was 20 and the “Crabgrass, Large plant response rating” value (crabgrass; [3]) was 40. The “Crabgrass, Large plant response rating” value (crabgrass; [4]) was 60, the “Plant response rating, Crabgrass, Large” value (crabgrass; Preemergence, 500 g ai/ha) was 80 and the “Foxtail, Giant plant response rating” value (giant foxtail; [8]) was 0. For the same compound, the “Foxtail, Giant plant response rating” value (giant foxtail; [3]) was 40, the “Foxtail, Giant plant response rating” value (giant foxtail; [4]) was 80 and the “Plant response rating, Foxtail, Giant” value (giant foxtail; Preemergence, 500 g ai/ha) was 90. For the same compound, the “Morningglory plant response rating” value (morningglory; Postemergence, 125 g ai/ha) was 0, the “Morningglory plant response rating” value (morningglory; Postemergence, 500 g ai/ha) was 0 and the “Plant response rating, Morningglory” value (morningglory; Preemergence, 500 g ai/ha) was 0. For the same compound, the “Pigweed plant response rating” value (redroot pigweed; [8]) was 0, the “Pigweed plant response rating” value (redroot pigweed; [3]) was 0 and the “Pigweed plant response rating” value (redroot pigweed; [4]) was 40. For the same compound, the “Velvetleaf plant response rating” value (velvetleaf; [8]) was 0, the “Velvetleaf plant response rating” value (velvetleaf; [3]) was 0 and the “Velvetleaf plant response rating” value (velvetleaf; [4]) was 0. The “Plant response rating, Velvetleaf” value (velvetleaf; Preemergence, 500 g ai/ha) was 0, the “Wheat plant response rating” value (wheat; [8]) was 0 and the “Wheat plant response rating” value (wheat; [3]) was 0. The “Wheat plant response rating” value (wheat; [4]) was 0, the “Plant response rating, Wheat” value (wheat; Preemergence, 500 g ai/ha) was 0 and the “Corn plant response rating” value (corn; [8]) was 0. For the same compound, the “Corn plant response rating” value (corn; [3]) was 0, the “Corn plant response rating” value (corn; [4]) was 0 and the “Plant response rating, Corn” value (corn; Preemergence, 500 g ai/ha) was 0. For the same compound, the “Plant response rating, Rice” value (rice; [9]) was 0, the “Plant response rating, Rice” value (rice; [10]) was 0 and the “Plant response rating, Rice” value (rice; [11]) was 0. The “Plant response rating, Rice” value (rice; [12]) was 0, the “Plant response rating, Sedge, Umbrella” value (umbrella sedge; [9]) was 0 and the “Plant response rating, Sedge, Umbrella” value (umbrella sedge; [10]) was 0. For the same compound, the “Plant response rating, Sedge, Umbrella” value (umbrella sedge; [11]) was 40, the “Plant response rating, Sedge, Umbrella” value (umbrella sedge; [7]) was 90 and the “Plant response rating, Ducksalad” value (duck salad; [9]) was 0. For the same compound, the “Plant response rating, Ducksalad” value (duck salad; [10]) was 0, the “Plant response rating, Ducksalad” value (duck salad; [11]) was 0 and the “Plant response rating, Ducksalad” value (duck salad; [12]) was 90. For the same compound, the “Plant response rating, Barnyardgrass” value (barnyardgrass [2]; [9]) was 0, the “Plant response rating, Barnyardgrass” value (barnyardgrass [2]; [10]) was 0 and the “Plant response rating, Barnyardgrass” value (barnyardgrass [2]; [11]) was 0. For the same compound, the “Plant response rating, Barnyardgrass” value (barnyardgrass [2]; [12]) was 20.
